Measured values: patent US20260102387A1, “IMMUNOSUPPRESSIVE COMPOUNDS” (UNIVERSITÄT BASEL, priority 2022, published 2026)
Entries after “also recorded” stand apart in the source; their conditions may differ.

How the values were obtained:
coronin 1 = assay: Coronin 1 Western blotting in human PBMCs; format: cell-based; details: 10 μg/ml, 5 days
Procedure: buffer with 0.2% SDS containing protease and phosphatase inhibitors (Roche) at 4° C., followed by protein determination (BCA, Pierce) and SDS-PAGE, transferred onto nitrocellulose and probed using antibodies against the indicated proteins (actin and coronin 1) followed by HRP-labeled secondary antibodies and developed using an enhanced chemi-luminescence imager (Fuji) (FIG. 8A).
Heparinized or EDTA treated blood or buffy coat from healthy volunteers were enriched for monocytes using the standard Histopaque 1.077 gradient centrifugation methodology. Post enrichment, the monocyte fraction was washed extensively with plain RPMI and subsequently counted and seeded in 96 well plate at a density of 0.2 million cells/well in a volume of 200 μl RPMI-1640 (Sigma) containing 1× penicillin and streptomycin (Gibco), 2 mM L-glutamine (Gibco), 10% heat inactivated FCS (PAA) and heparin 50 units/ml along with the vehicle (DMSO) or coronin 1 inhibitor at indicated concentrations. Cells were incubated in a 37° C. humidified incubator with a 5% CO2 for five days with the expression inhibitor and vehicle replenished in between at 48 hours post seeding by replacing 50% of the media. […]

RBL cells = assay: In vitro toxicity, MTT assay; format: cell-based, Rat
Procedure: MTT assay was performed with 3-(4,5-dimethylthiazol-2-yl)-2,5-diphenyltetra-zolium bromide (MTT, Cayman chemicals) using the manufacturers protocol. In brief, RBL cells pretreated with coronin 1 expression inhibitor or vehicle controls were reseeded and cultured in a 96-well plate at a concentration of […] cells/ml of culture media, 10 μL of MTT was added and incubated for 4 h at 37° C. At the end, culture supernatant was removed and the formazan crystals were dissolved with 100 μl of crystal dissolving solution and the absorbance measured at 570 nm using a plate reader (Synergy) (FIG. 5B).

[1] = In vivo toxicity: hematological parameters (ADVIA) and body weight; details: 150 mg/kg/body weight, BD, IP, six-day administration
Procedure: Coronin 1 expression inhibitor (compound 11) was initially dissolved in DMSO at 100 mg/ml concentration. In parallel, a 50:50 solution of miglyol 812 and kolliphor EL (M+K) was prepared. Coronin 1 expression inhibitor: M+K was mixed at a ratio of 30:70 and vortexed for 5 minutes to make a homogenous suspension such that a final concentration of 30 mg/ml was obtained. 100 μl/mouse was subsequently administered either intraperitoneally or subcutaneously using an insulin syringe. The mice used for the study were separated into age and sex matched cohorts, weighed prior to start of the study and regularly monitored for body weight, behavioural changes, fur changes, faecal consistency and urine colour. […]

[2] = system: human PBMCs (CD4 and CD8 T cells); assay: Proinflammatory cytokine production in human PBMCs after CD3/CD28 stimulation, flow cytometry; format: cell-based; details: 10 μg/ml, 4.5 days, CD3 and CD28 antibodies
Procedure: Heparinized or EDTA treated blood or buffy coat from healthy volunteers were enriched for monocytes using the standard Histopaque 1.077 gradient centrifugation methodology. Post enrichment, the monocyte fraction was washed extensively with plain RPMI and subsequently counted and seeded in 96 well plate at a density of 0.2 million cells/well in a volume of 200 μl RPMI-1640 (Sigma) containing 1× penicillin and streptomycin (Gibco), 2 mM L-glutamine (Gibco), 10% heat inactivated FCS (PAA) and heparin 50 units/ml along with the vehicle (DMSO) or coronin 1 inhibitor at indicated concentrations. Cells were incubated in a 37° C. humidified incubator with a 5% CO2 for five days with the expression inhibitor and vehicle replenished in between at 48 hours post seeding by replacing 50% of the media. Subsequently, the cells were assessed for coronin 1 down regulation by Western blotting (FIG. 8A) and in parallel stimulated with anti-CD3 (2 μg/ml) and anti-CD28 (10 μg/ml) antibodies overnight and treated with brefeldin A for a duration of 4 h and subjected to surface staining (for CD3, CD4, CD8 and CD19) along with live-dead marker and fixed with 4% formaldehyde, permeabilized with 0.1% saponin and subjected to intracellular staining for interleukin-2 (FIG. 8B,C).

coronin 1 promoter = assay: Fluorescence-based screening assay: coronin 1 promoter driven GFP in RBL cells (microplate reader / microscopy); format: cell-based; details: 48 h
Procedure: The murine coronin 1 promoter sequences of SEQ ID NO: 1-6 were each cloned into a plasmid lacking a promoter (promoterless) but containing a destabilized Green Fluorescence Protein (GFP) cassette. Rat Basophil Leukemia (RBL) cells were transfected with the plasmids, stable GFP expressing cells were enriched, incubated with various compounds and assessed for coronin 1 promoter inhibition by assessing green fluorescence values (FIG. 2).
The plasmids were independently transfected into immune cells (Rat basophil Leukemia, RBL cells) to generate green and red fluorescent RBL cells that were subsequently enriched by means of flow cytometry. These cells were then mixed in equal ratio (1:1) and incubated in a 96 well plate at 100,000 cells/well in a volume of 200 μl of phenol red free RPMI supplemented with 8% fetal calf serum, L-glutamate and antibiotics (penicillin, […]) from available chemical libraries. At defined time points (8 h, 24 h and 48 h), the GFP and RFP fluorescence was measured using a 96 well microplate reader (Synergy, BioTek Instruments). […] Selected compounds show different levels of modulation of coronin 1 promoter driven GFP and CMV promoter driven RFP fluorescence. GFP and RFP fluorescence were analyzed with a microplate reader upon incubation with the top coronin 1 promoter inhibiting compounds. Shown are percentage of GFP reduction (left column) and percentage of RFP reduction (right column) for the compounds at 5 μg/ml concentration at 48 h. Cycloheximide (CHX) serves as positive control whereas media and DMSO serve as negative controls. […] Cells were imaged using a fluorescence microscope to validate fluorescence inhibition (FIG. 3A) and as well assess morphology and viability (in addition to GFP down regulation confirmation). In addition, quantitative Polymerase Chain Reaction (qPCR) for coronin 1 mRNA transcripts reveal reduction with compound 11 (FIG. 3B). The primers used for the qPCR on RBL cells are listed below as follows;

COC(=O)C1=C(C)NC2=C(C(=O)CC(c3ccccc3OC)C2)C1c1cccc(O)c1 (stereo not drawn) [Comp. 11, methyl-4-(3-hydroxyphenyl)-7-(2-methoxyphenyl)-2-methyl-5-oxo-1,4,5,6,7,8-hexahydro-3-quinolinecarboxylate]
coronin 1 depletion in human PBMCs (Western blotting) (coronin 1): coronin 1 depletion | in vitro toxicity by MTT assay (RBL cells): minimal toxicity | in vivo toxicity: hematological parameters (RBC, WBC, platelet counts, hemoglobin), body weight [1]: did not reveal any potential toxicity; also recorded: good safety and tolerability | production of interleukin-2 (IL-2) in CD4 and CD8 T cells post T cell receptor stimulation [2]: attenuates immune responses | coronin 1 promoter driven GFP, imaged by microscope (coronin 1 promoter; 10 μg/ml, confocal microscope): selectively reduce GFP values; also recorded: selective reduction | activity at 5 µg/mL (coronin 1 promoter; RBL, 5 μg/ml, microplate reader, DMSO = 100, read-out: GFP values (%)): 35%
